Assays:
Format in all cases: in vitro ADME
[1] = Liver microsomal stability in rat; details: rat liver microsomes, 0.5 mg protein/mL, 1 μM compound, 37° C.
Protocol: (§1) Experimental Example 4:Evaluation on Liver Microsomal Stability of the Compound Disclosed Herein in Mouse/Rat
(§2) Objective: To evaluate the liver microsomal stability of the compound disclosed herein in mouse/rat
(§3) An appropriate amount of the compound was precisely weighed and dissolved in DMSO to prepare a 5.0 mM stock solution. 5.0 mM stock solution was diluted to 1.0 mM with DMSO, and then diluted with water to 10 μM, serving as a compound working solution for later use (DMSO content in the reaction system: 0.1% v/v).
as §3, with “methanol” for “DMSO”, “methanol,” for “DMSO,”, “10% methanol-water (v/v) solution” for “water”, “(methanol” for “(DMSO”, “1.1%” for “0.1%”
(§4) • (1) The liver microsomes (20 mg protein/mL) were taken from a −80° C. refrigerator, pre-incubated on a 37° C. water bath thermostatic oscillator for 3 min, and thawed for use. • (2) A mixed incubation system solution (without compounds or […]) was prepared according to the proportion of “composition of the incubation system” described above and pre-incubated on a 37° C. water bath thermostatic oscillator for 2 min. • (3) Control group (without β-NADPH): 30 μL of water and 30 μL of compound working solution (10 μM) were added to 240 μL of the mixed incubation system solution in step (2), and the mixture was vortexed for 30 s and mixed. The total volume of the mixture was 300 μL. The sample was duplicated. The reaction solution was placed on a 37° C. water bath thermostatic oscillator for incubation, and timing was started. Samples were collected at 0 min and 60 min. • (4) Sample group: 70 μL of β-NADPH solution (10 mM) and 70 μL of compound working solution (10 μM) were added to 560 μL of the mixed incubation system solution in step (2), and the total volume of the mixture was 700 μL. The mixture was vortexed for 30 s and mixed. The sample was duplicated. The reaction solution was placed on a 37° C. water bath thermostatic oscillator for incubation, and timing was started. Samples were collected at 0 min, 5 min, 10 min, 20 min, 30 min and 60 min after timing. • (5) The reaction solution was vortexed for 3 min, and centrifuged at 12,000 rpm for 5 min. • (6) 50 μL of the supernatant was added to 150 μL of water, and the resulting solution was vortexed and mixed before LC/MS/MS analysis.
(§5) The half-life (t1/2) and clearance (Cl) were calculated using the following first-order kinetic formula:
(§6) Vd=1/protein content in liver microsomes
(§7) Note: k denotes the slope of the logarithm of the remaining amount of a compound vs. time, Vd denotes apparent volume of distribution, C0 denotes drug concentration at 0 h, Ct denotes drug concentration at time t, t denotes time, e denotes natural number, and Clint denotes intrinsic clearance.

[2] = Liver microsomal stability in human; details: human liver microsomes, 0.5 mg protein/mL, 1 μM compound, 37° C.
Protocol: (§8) Experimental Example 2: Evaluation on Liver Microsomal Stability of the Compound Disclosed Herein in Human/Canine
as §3
(§9) • (1) The liver microsomes (20 mg protein/mL) were taken from a −80° C. refrigerator, pre-incubated on a 37° C. water bath thermostatic oscillator for 3 min, and thawed for use. • (2) A mixed incubation system solution (without compounds or β-NADPH) was prepared according to the proportion of “composition of the incubation system” described above and pre-incubated on a 37° C. water bath thermostatic oscillator for 2 min. • (3) Control group (without β-NADPH): 30 μL of water and 30 μL of compound working solution (10 μM) were added to 240 μL of the mixed incubation system solution in step (2), and the mixture was vortexed for 30 s and mixed. The total volume of the mixture was 300 μL. The sample was duplicated. The reaction solution was placed on a 37° C. water bath thermostatic oscillator for incubation, and timing was started. Samples were collected at 0 min and 60 min. • (4) Sample group: 70 μL of β-NADPH solution (10 mM) and 70 μL of compound working solution (10 μM) were added to 560 μL of the mixed incubation system solution in step (2), and the total volume of the mixture was 700 μL. The mixture was vortexed for 30 s and mixed. The sample was duplicated. The reaction solution was placed on a 37° C. water bath thermostatic oscillator for incubation, and timing was started. Samples were collected at 0 min, 5 min, 10 min, 20 min, 30 min and 60 min after timing. • (5) The reaction solution was vortexed for 3 min, and centrifuged at 12,000 rpm for 5 min. • (6) 50 μL of the supernatant was added to 150 μL of water, and the resulting solution was vortexed and mixed before LC/MS/MS analysis.
as §5, §6, §7

[3] = Liver microsomal stability in canine; details: dog; canine liver microsomes, 0.5 mg protein/mL, 1 μM compound, 37° C.
Protocol: as §8, §3, §9, §5, §6, §7

[4] = Liver microsomal stability in mouse; details: mouse liver microsomes, 0.5 mg protein/mL, 1 μM compound, 37° C.
Protocol: as §1, §2, §3
as §3, with “methanol” for “DMSO”, “methanol,” for “DMSO,”, “10% methanol-water (v/v) solution” for “water”, “(methanol” for “(DMSO”, “1.1%” for “0.1%”
as §4, §5, §6, §7

Row | half-life at 1 μM [1] | microsomal CLint at 1 μM [1] | half-life at 1 μM [4] | microsomal CLint at 1 μM [4] | SMILES | further results
1 | 3.98 h | 5.8 µL/min/mg |  |  | CCn1c(-c2nc3cc(C(=O)N4CCC[C@@H](N)C4)cc(OC)c3n2C)cc2ccsc21 [Compound 3, (R)-(3-aminopiperidin-1-yl)(2-(6-ethyl-6H-thieno[2,3-b]pyrrol-5-yl)-7-methoxy-1-methyl-1H-benzo[d]imidazol-5-yl)methanone] | half-life at 1 μM [2]: 4.62 h; microsomal CLint at 1 μM [2]: 5 µL/min/mg
2 |  |  | 3.98 h | 5.8 µL/min/mg | COc1cc(C(=O)N2CCC[C@@H](N)C2)cc2nc(-c3cc4cc(C)sc4n3CC3CC3)n(C)c12 [Compound 23, (R)-(3-aminopiperidin-1-yl)(2-(6-(cyclopropylmethyl)-2-methyl-6H-thieno[2,3-b]pyrrol-5-yl)-7-methoxy-1-methyl-1H-benzo[d]imidazol-5-yl)methanone] | 

The remaining lines, values behind:

Row | SMILES | half-life at 1 μM [1] | microsomal CLint at 1 μM [1] | half-life at 1 μM [4] | microsomal CLint at 1 μM [4] | further results
3 | CCn1c(-c2nc3cc(C(=O)N4CCC[C@@H](N)C4)cc(OC)c3n2C)cc2cc(C)sc21 [Compound 9, (R)-(3-aminopiperidin-1-yl)(2-(6-ethyl-2-methyl-6H-thieno[2,3-b]pyrrol-5-yl)-7-methoxy-1-methyl-1H-benzo[d]imidazol-5-yl)methanone] |  |  |  |  | t1/2 [1]: →∞; half-life at 1 μM [3]: 23.1 h; microsomal CLint at 1 μM [3]: 1 µL/min/mg
4 | COc1cc(C(=O)N2CCC[C@@H](N)C2)cc2nc(-c3cc4ccsc4n3CC3CC3)n(C)c12 [Compound 18, (R)-(3-aminopiperidin-1-yl)(2-(6-(cyclopropylmethyl)-6H-thieno[2,3-b]pyrrol-5-yl)-7-methoxy-1-methyl-1H-benzo[d]imidazol-5-yl)methanone] |  |  | 4.13 h | 5.6 µL/min/mg | half-life at 1 μM [2]: 3.5 h; microsomal CLint at 1 μM [2]: 6.6 µL/min/mg
5 | COc1cc(C(=O)N2CCC[C@@H](N)C2)cc2nc(-c3cc4ccsc4n3CC(C)C)n(C)c12 [Compound 20, (R)-(3-aminopiperidin-1-yl)(2-(6-isobutyl-6H-thieno[2,3-b]pyrrol-5-yl)-7-methoxy-1-methyl-1H-benzo[d]imidazol-5-yl)methanone] | 5.25 h | 4.4 µL/min/mg | 11.6 h | 2 µL/min/mg | 
6 | COc1cc(C(=O)N2CCC[C@@H](N)C2)cc2nc(-c3cc4ccsc4n3CC(F)(F)F)n(C)c12 [Compound 21, (R)-(3-aminopiperidin-1-yl)(7-methoxy-1-methyl-2-(6-(2,2,2-trifluoroethyl)-6H-thieno[2,3-b]pyrrol-5-yl)-1H-benzo[d]imidazol-5-yl)methanone] | 2.97 h | 7.8 µL/min/mg |  |  | 
7 | COc1cc(C(=O)N2CCC[C@@H](N)C2)cc2nc(-c3cc4ccsc4n3CC3CCC3)n(C)c12 [Compound 22, (R)-(3-aminopiperidin-1-yl)(2-(6-(cyclobutylmethyl)-6H-thieno[2,3-b]pyrrol-5-yl)-7-methoxy-1-methyl-1H-benzo[d]imidazol-5-yl)methanone] |  |  | 2.68 h | 8.6 µL/min/mg | 

— patent US20200407370A1, “PEPTIDYLARGININE DEIMINASE INHIBITOR AND USE THEREOF” (Nanjing Transthera Biosciences Co., Ltd., priority 2018, published 2020)
